According to patent publication US9096560B2, “5-heterocyclylalkyl-3-hydroxy-2-phenylcyclopent-2-enones as herbicides” (Syngenta Limited, priority 2008, dated 2015):

Legend:
Format in all cases: in vivo
Avena fatua (AVEFA) [1] = assay: Example A pre-emergence herbicidal test, AVEFA; details: rate 500 g/ha, evaluated 19 or 20 days after spraying
Procedure: (§1) Seeds of a variety of test species were sown in standard soil in pots. After cultivation for one day (pre-emergence) or after 10 days cultivation (post-emergence) under controlled conditions in a glasshouse, the plants were sprayed with an aqueous spray solution derived from the formulation of the technical active ingredient in 0.6 ml acetone and 45 ml formulation solution containing 10.6% Emulsogen EL (Registry number 61791-12-6), 42.2% N-methylpyrrolidone, 42.2% dipropylene glycol monomethyl ether (Registry number 34590-94-8) and 0.2% X-77 (Registry number 11097-66-8). The test plants were then grown in a greenhouse under optimum conditions until, 14 or 15 days later for post-emergence and 19 or 20 days for pre-emergence, the test was evaluated (100=total damage to plant; 0=no damage to plant). Alopecurus myosuroides (ALOMY), Avena fatua (AVEFA), Lolium perenne (LOLPE), Setaria faberi (SETFA), Digitaria sanguinalis (DIGSA), Echinochloa crus-galli (ECHCG) Pre-Emergence Activity

Setaria faberi (SETFA) [2] = assay: Example A post-emergence herbicidal test, SETFA; details: rate 125 g/ha, evaluated 14 or 15 days after spraying
Procedure: as §1, with “Post-Emergence” for “Pre-Emergence”

[3] = test system: Echinochloa crus-galli (ECHCG); assay: Example A pre-emergence herbicidal test, ECHCG; details: rate 500 g/ha, evaluated 19 or 20 days after spraying
Procedure: as §1

Lolium perenne (LOLPE) [4] = assay: Example A post-emergence herbicidal test, LOLPE; details: rate 125 g/ha, evaluated 14 or 15 days after spraying
Procedure: as §1, with “Post-Emergence” for “Pre-Emergence”

[5] = test system: Alopecurus myosuroides (ALOMY); assay: Example A post-emergence herbicidal test, ALOMY; details: rate 125 g/ha, evaluated 14 or 15 days after spraying
Procedure: as §1, with “Post-Emergence” for “Pre-Emergence”

[6] = test system: Alopecurus myosuroides (ALOMY); assay: Example A pre-emergence herbicidal test, ALOMY; details: rate 500 g/ha, evaluated 19 or 20 days after spraying
Procedure: as §1

[7] = test system: Digitaria sanguinalis (DIGSA); assay: Example A post-emergence herbicidal test, DIGSA; details: rate 125 g/ha, evaluated 14 or 15 days after spraying
Procedure: as §1, with “Post-Emergence” for “Pre-Emergence”

[8] = test system: Digitaria sanguinalis (DIGSA); assay: Example A pre-emergence herbicidal test, DIGSA; details: rate 500 g/ha, evaluated 19 or 20 days after spraying
Procedure: as §1

Setaria faberi (SETFA) [9] = assay: Example A pre-emergence herbicidal test, SETFA; details: rate 500 g/ha, evaluated 19 or 20 days after spraying
Procedure: as §1

Lolium perenne (LOLPE) [10] = assay: Example A pre-emergence herbicidal test, LOLPE; details: rate 500 g/ha, evaluated 19 or 20 days after spraying
Procedure: as §1

Avena fatua (AVEFA) [11] = assay: Example A post-emergence herbicidal test, AVEFA; details: rate 125 g/ha, evaluated 14 or 15 days after spraying
Procedure: as §1, with “Post-Emergence” for “Pre-Emergence”

[12] = test system: Echinochloa crus-galli (ECHCG); assay: Example A post-emergence herbicidal test, ECHCG; details: rate 125 g/ha, evaluated 14 or 15 days after spraying
Procedure: as §1, with “Post-Emergence” for “Pre-Emergence”

Structure (SMILES): CCc1ccc(-c2ccc(Cl)cc2)cc1C1C(=O)CC(CC2CCOCC2)C1=O (stereo not drawn) [Compound T2]
- Pre-Emergence Activity AVEFA (100=total damage to plant; 0=no damage to plant) (Avena fatua (AVEFA) [1]): 10
- Post-Emergence Activity SETFA (100=total damage to plant; 0=no damage to plant) (Setaria faberi (SETFA) [2]): 100
- Pre-Emergence Activity ECHCG (100=total damage to plant; 0=no damage to plant) [3]: 70
- Post-Emergence Activity LOLPE (100=total damage to plant; 0=no damage to plant) (Lolium perenne (LOLPE) [4]): 20
- Post-Emergence Activity ALOMY (100=total damage to plant; 0=no damage to plant) [5]: 80
- Pre-Emergence Activity ALOMY (100=total damage to plant; 0=no damage to plant) [6]: 70
- Post-Emergence Activity DIGSA (100=total damage to plant; 0=no damage to plant) [7]: 100
- Pre-Emergence Activity DIGSA (100=total damage to plant; 0=no damage to plant) [8]: 80
- Pre-Emergence Activity SETFA (100=total damage to plant; 0=no damage to plant) (Setaria faberi (SETFA) [9]): 70
- Pre-Emergence Activity LOLPE (100=total damage to plant; 0=no damage to plant) (Lolium perenne (LOLPE) [10]): 90
- Post-Emergence Activity AVEFA (100=total damage to plant; 0=no damage to plant) (Avena fatua (AVEFA) [11]): 40
- Post-Emergence Activity ECHCG (100=total damage to plant; 0=no damage to plant) [12]: 100
